Several values for one entry are separate records, joined by “and”; a condition that tells them apart may be missing. Identical values can stand only once.
Test system: Rattus norvegicus
[1] = short-term, duration: 2 weeks, inhalation, F, Wistar, generation: P0, P0: Lung: Lung Weight, Relative
[2] = short-term, duration: 2 weeks, inhalation, M, Wistar, generation: P0, P0: Lung: Lung Weight, Relative
[3] = short-term, duration: 28 days, inhalation, F, Wistar, Teeth: Incisors, Discolored
[4] = short-term, duration: 28 days, inhalation, M, Wistar, Teeth: Incisors, Discolored
[5] = short-term, duration: 28 days, oral, gavage, F, Wistar, Blood: Red Cell Distribution Width (RDW) + Liver: Total Cholesterol (CHOL)
[6] = short-term, duration: 28 days, oral, gavage, M, Wistar, Blood: Hemoglobin (HGB) + Liver: Total Bilirubin (TBILI)
[7] = developmental, duration: 24 days, oral, gavage, M/F, Sprague-Dawley, generation: F1, F1: Whole Body: Pup Weight per Litter, PND1
[8] = reproduction developmental, duration: 24 days, oral, gavage, F, Sprague-Dawley, generation: P0, P0: Whole Body: Clinical Signs
[9] = reproduction developmental, duration: 24 days, oral, gavage, F, Sprague-Dawley, generation: P0, P0: Whole Body: Feed Consumption, Absolute + P0: Whole Body: Maternal Body Weight Change + P0: Whole Body: Mortality + P0: Whole Body: No. …
[10] = short-term, duration: 28 days, oral, gavage, F, Wistar, Adrenal: Adrenal Gland Weight, Absolute + Adrenal: Adrenal Gland Weight, Relative + Kidney: Creatinine (CREAT) + Multi-Organ: Calcium (CA)
[11] = short-term, duration: 28 days, oral, gavage, M, Wistar, Blood: Hematocrit (HCT) + Blood: Hemoglobin (HGB) + Kidney: Urea + Liver: Alkaline Phosphatase (ALP) + Liver: Liver, Enlarged + Multi-Organ…
[12] = short-term, duration: 28 days, oral, gavage, M, Wistar, Liver: Liver Weight, Absolute + Multi-Organ: Glucose (GLU) + Multi-Organ: Potassium (K)
[13] = subchronic, duration: 90 days, oral, gavage, F, Sprague-Dawley, Kidney: Calcium (CA) Excretion + Multi-Organ: White Blood Cell (WBC)
[14] = subchronic, duration: 90 days, oral, gavage, M, Sprague-Dawley, Blood: Hematocrit (HCT) + Blood: Hemoglobin (HGB)
[15] = subchronic, duration: 90 days, oral, gavage, M, Sprague-Dawley, Blood: Red Blood Cell (RBC) + Liver: Aspartate Aminotransferase (AST) + Multi-Organ: Prothrombin Time (PT)

Compound: F/C(=C(/F)C(F)(C(F)(F)F)C(F)(F)F)C(F)(F)F [(E)-Perfluoro(4-methyl-2-pentene)]
- LOAEL (acute, duration: 4 hours, inhalation, F, Wistar, Central Nervous System: Hunched Posture + Central Nervous System: Ruffled Fur + Lung: Lung, Non-Neoplastic Lesions + Lung: Tachypnea + Whole…): 21.7 mg/L
- LOAEL (acute, duration: 4 hours, inhalation, M, Wistar, Central Nervous System: Frightened behavior + Central Nervous System: Ruffled Fur + Central Nervous System: Tremor + Lung: Lung, Non-…): 21.7 mg/L
- NOAEL (developmental, duration: 2 weeks, inhalation, M/F, Wistar, generation: F1, F1: Whole Body: Clinical Signs + F1: Whole Body: Fetal Alterations, Total + F1: Whole Body: Male Pups per Pups Sexed + F1: Whole Body: Pup …): 4290 mg/m3 and 4300 mg/m3
- NOAEL (reproduction developmental, duration: 2 weeks, inhalation, F, Wistar, generation: P0, P0: Ovary: Corpora Lutea + P0: Uterus: Implantation + P0: Whole Body: Dams with Stillborn Pups + P0: Whole Body: Days of Cohabitation + P0: …): 4290 mg/m3 and 4300 mg/m3
- NOAEL (reproduction developmental, duration: 2 weeks, inhalation, M, Wistar, generation: P0, P0: Whole Body: Days of Cohabitation + P0: Whole Body: Fertility Index + P0: Whole Body: Percent Mating): 4290 mg/m3 and 4300 mg/m3
- NOAEL (short-term, duration: 2 weeks, inhalation, F, Wistar, generation: P0, P0: Kidney: Kidney, Faded + P0: Liver: Liver Weight, Absolute + P0: Liver: Liver Weight, Relative + P0: Lung: Lung Weight, Absolute + P0: …): 4290 mg/m3 and 4300 mg/m3
- LOAEL (short-term, duration: 2 weeks, inhalation, F, Wistar, generation: P0, P0: Kidney: Kidney, Faded + P0: Thymus: Thymus, Small + P0: Whole Body: Body Weight Change + P0: Whole Body: Body Weight, Absolute + P0: …): 9200 mg/m3
- LOAEL [1]: 4290 mg/m3 and 4300 mg/m3
- NOAEL [1]: 1840 mg/m3
- NOAEL (short-term, duration: 2 weeks, inhalation, M, Wistar, generation: P0, P0: Epididymis: Epididymis Weight, Absolute + P0: Epididymis: Epididymis Weight, Relative + P0: Epididymis: Epididymis, Duct, Exfoliated …): 4290 mg/m3 and 4300 mg/m3
- LOAEL (short-term, duration: 2 weeks, inhalation, M, Wistar, generation: P0, P0: Epididymis: Epididymis, Small + P0: Kidney: Kidney, Faded + P0: Prostate: Prostate, Small + P0: Seminal Vesicle: Seminal Vesicle, Small…): 9200 mg/m3
- LOAEL [2]: 4290 mg/m3 and 4300 mg/m3
- NOAEL [2]: 1840 mg/m3
- NOAEL (short-term, duration: 2 weeks, inhalation, M, Wistar, generation: P0, P0: Whole Body: Feed Consumption, Absolute): 9200 mg/m3
- NOAEL (short-term, duration: 28 days, inhalation, F, Wistar, Adrenal: Adrenal Gland Weight, Absolute + Blood: Albumin/Globulin (A/G) Ratio + Blood: Hemoglobin (HGB) + Blood: Mean Cell Volume (MCV) + …): 3070 mg/m3
- LOAEL [3]: 3070 mg/m3
- NOAEL [3]: 1230 mg/m3 and 1220 mg/m3
- NOAEL (short-term, duration: 28 days, inhalation, M, Wistar, Adrenal: Adrenal Gland Weight, Absolute + Blood: Albumin/Globulin (A/G) Ratio + Blood: Hemoglobin (HGB) + Blood: Mean Cell Volume (MCV) + …): 3070 mg/m3
- LOAEL [4]: 3070 mg/m3
- NOAEL [4]: 1230 mg/m3 and 1220 mg/m3
- NOAEL (short-term, duration: 28 days, oral, gavage, F, Wistar, Adrenal: Adrenal Gland Histopathology + Blood: Mean Cell Hemoglobin (MCH) + Blood: Platelet Count (PLT) + Bone: Femur Histopathology + Bone…): 450 mg/kg-day
- LOAEL (short-term, duration: 28 days, oral, gavage, F, Wistar, Blood: Hematocrit (HCT) + Blood: Hemoglobin (HGB), Recovery + Blood: Mean Cell Volume (MCV) + Blood: Red Blood Cell (RBC) + Calcium (CA) + …): 450 mg/kg-day
- NOAEL (short-term, duration: 28 days, oral, gavage, F, Wistar, Blood: Hematocrit (HCT) + Blood: Mean Cell Volume (MCV) + Blood: Red Blood Cell (RBC) + Calcium (CA) + Chloride (CL) + Gamma-glutamyl …): 150 mg/kg-day
- LOAEL (short-term, duration: 28 days, oral, gavage, F, Wistar, Blood: Hemoglobin (HGB) + Blood: Mean Cell Hemoglobin Concentration (MCHC) + Liver: Liver Weight, Absolute + Spleen: Spleen Weight, Absolute): 50 mg/kg-day
- LOAEL [5]: 150 mg/kg-day
- NOAEL [5]: 50 mg/kg-day
- NOAEL (short-term, duration: 28 days, oral, gavage, M, Wistar, Adrenal: Adrenal Gland Histopathology + Bone: Femur Histopathology + Bone: Sternum Histopathology + Brain: Brain Weight, Absolute, Recovery…): 450 mg/kg-day
- LOAEL (short-term, duration: 28 days, oral, gavage, M, Wistar, Blood: Hematocrit (HCT) + Blood: Mean Cell Hemoglobin Concentration (MCHC), Recovery + Blood: Mean Cell Volume (MCV) + Blood: Platelet Count…): 450 mg/kg-day
- NOAEL (short-term, duration: 28 days, oral, gavage, M, Wistar, Blood: Hematocrit (HCT) + Blood: Mean Cell Volume (MCV) + Blood: Platelet Count (PLT) + Blood: Red Blood Cell (RBC) + Blood: Red Cell …): 150 mg/kg-day
- LOAEL [6]: 150 mg/kg-day
- NOAEL [6]: 50 mg/kg-day
- LOAEL (short-term, duration: 28 days, oral, gavage, M, Wistar, Blood: Mean Cell Hemoglobin (MCH) + Blood: Mean Cell Hemoglobin Concentration (MCHC) + Brain: Brain Weight, Absolute + Testis: Testis Weight…): 50 mg/kg-day

Compound: O=C([O-])C(F)(F)C(F)OC(F)(F)C(F)(F)C(F)(F)OC(F)(F)F.[NH4+] (centres undefined) [Ammonium 4,8-dioxa-3H-perfluorononanoate]
- NOAEL (developmental, duration: 24 days, oral, gavage, M/F, Sprague-Dawley, generation: F1, F1: Whole Body: Dams with Stillborn Pups + F1: Whole Body: Delivered Litters + F1: Whole Body: Live Pups Born + F1: Whole Body: Mean Pups …): 270 mg/kg-day
- LOAEL (developmental, duration: 24 days, oral, gavage, M/F, Sprague-Dawley, generation: F1, F1: Whole Body: No Milk in Stomach + F1: Whole Body: Pup Weight per Litter, PND4 + F1: Whole Body: Pup Weight per Litter, PND6 + F1: Whole …): 270 mg/kg-day
- LOAEL [7]: 90 mg/kg-day
- NOAEL [7]: 30 mg/kg-day
- NOAEL (developmental, duration: 24 days, oral, gavage, M/F, Sprague-Dawley, generation: F1, F1: Whole Body: Pup Weight per Litter, PND4 + F1: Whole Body: Pup Weight per Litter, PND6 + F1: Whole Body: Survival, PND1 + F1: Whole Body…): 90 mg/kg-day
- NOAEL (reproduction developmental, duration: 24 days, oral, gavage, F, Sprague-Dawley, generation: P0, P0: Uterus: Resorptions, Early + P0: Whole Body: Feed Consumption, Absolute + P0: Whole Body: Length of Gestation + P0: Whole Body: Length …): 270 mg/kg-day
- LOAEL [8]: 90 mg/kg-day
- NOAEL [8]: 30 mg/kg-day
- LOAEL [9]: 270 mg/kg-day
- NOAEL [9]: 90 mg/kg-day
- LOAEL [10]: 100 mg/kg-day
- NOAEL [10]: 30 mg/kg-day
- NOAEL (short-term, duration: 28 days, oral, gavage, F, Wistar, Blood: Activated Partial Thromboplastin Time (APTT) + Blood: Albumin/Globulin (A/G) Ratio + Blood: Hematocrit (HCT) + Blood: Hemoglobin (HGB…): 100 mg/kg-day
- NOAEL (short-term, duration: 28 days, oral, gavage, M, Wistar, Adrenal: Adrenal Gland Weight, Absolute + Adrenal: Adrenal Gland Weight, Relative + Blood: Activated Partial Thromboplastin Time (APTT) + …): 100 mg/kg-day
- LOAEL [11]: 100 mg/kg-day
- NOAEL [11]: 30 mg/kg-day
- LOAEL (short-term, duration: 28 days, oral, gavage, M, Wistar, Liver: Hepatocellular Hypertrophy + Liver: Liver Weight, Relative + Liver: Total Bilirubin (TBILI)): 10 mg/kg-day
- LOAEL [12]: 30 mg/kg-day
- NOAEL [12]: 10 mg/kg-day
- NOAEL (subchronic, duration: 90 days, oral, gavage, F, Sprague-Dawley, Adrenal: Adrenal Gland Weight, Absolute + Adrenal: Adrenal Gland Weight, Relative + Blood: Activated Partial Thromboplastin Time (APTT) + …): 100 mg/kg-day
- LOAEL [13]: 100 mg/kg-day
- NOAEL [13]: 30 mg/kg-day
- NOAEL (subchronic, duration: 90 days, oral, gavage, M, Sprague-Dawley, Adrenal: Adrenal Gland Weight, Absolute + Adrenal: Adrenal Gland Weight, Relative + Blood: Activated Partial Thromboplastin Time (APTT) + …): 10 mg/kg-day
- LOAEL [14]: 3 mg/kg-day
- NOAEL [14]: 1 mg/kg-day
- LOAEL [15]: 10 mg/kg-day
- NOAEL [15]: 3 mg/kg-day

From EPA's ToxValDB 9.5
